Experimental data as given in patent US12391648B2, “Pyridyloxy thioester derivative and preparation method therefor, herbicidal composition, and application” (Qingdao Kingagroot Chemical Compound Co., Ltd., priority 2018, dated 2025).

Assays:
Experiment in all cases: Post-emergence test experiment (Table 3, 1000 g/ha)
Type in all cases: in vivo
Conditions in all cases: post-emergence spray, after 3 weeks, fresh weight inhibition
Abutilon theophrasti = tested on: Abutilon theophrasti
Method in brief: (§1)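 Weed seeds sown in soil-filled pots in greenhouse, sprayed at 2-3 leaf stage (2 weeks after sowing) with compound in acetone/tween-80 plus methyl oleate emulsible concentrate (1.5 L/ha) diluted in water. Fresh-weight growth inhibition scored after 3 weeks on 0-5 scale (5: >85%, 0: <5%).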

Digitaria sanguinalis = tested on: Digitaria sanguinalis
Method in brief: as §1

Galium spurium = tested on: Galium spurium
Method in brief: as §1

Leptochloa chinensis = tested on: Leptochloa chinensis
Method in brief: as §1

Monochoria vaginalis = tested on: Monochoria vaginalis
Method in brief: as §1

Setaria viridis = tested on: Setaria viridis
Method in brief: as §1

Structure (SMILES)	Activity level (growth inhibition rate) Abutilon theophrasti (Abutilon theophrasti)	Activity level (growth inhibition rate) Digitaria sanguinalis (Digitaria sanguinalis)	Activity level (growth inhibition rate) Galium spurium (Galium spurium)	Activity level (growth inhibition rate) Leptochloa chinensis (Leptochloa chinensis)	Activity level (growth inhibition rate) Monochoria Vaginalis (Monochoria vaginalis)	Activity level (growth inhibition rate) Setaria viridis (Setaria viridis)
CC(Oc1nc(F)c(Cl)c(N)c1Cl)C(=O)SC(N)=O (stereo not drawn) [Compound 100]	5 (Level 5: the growth inhibition rate is greater than 85%)	5 (Level 5: the growth inhibition rate is greater than 85%)	5 (Level 5: the growth inhibition rate is greater than 85%)	5 (Level 5: the growth inhibition rate is greater than 85%)	5 (Level 5: the growth inhibition rate is greater than 85%)	5 (Level 5: the growth inhibition rate is greater than 85%)
CCOC(=O)SC(=O)C(C)Oc1nc(F)c(Cl)c(N)c1Cl (stereo not drawn) [Compound 101]	5 (Level 5: the growth inhibition rate is greater than 85%)	5 (Level 5: the growth inhibition rate is greater than 85%)	5 (Level 5: the growth inhibition rate is greater than 85%)	5 (Level 5: the growth inhibition rate is greater than 85%)	5 (Level 5: the growth inhibition rate is greater than 85%)	5 (Level 5: the growth inhibition rate is greater than 85%)
CC(C)=NSC(=O)C(C)Oc1nc(F)c(Cl)c(N)c1Cl (stereo not drawn) [Compound 102]	5 (Level 5: the growth inhibition rate is greater than 85%)	5 (Level 5: the growth inhibition rate is greater than 85%)	5 (Level 5: the growth inhibition rate is greater than 85%)	5 (Level 5: the growth inhibition rate is greater than 85%)	5 (Level 5: the growth inhibition rate is greater than 85%)	5 (Level 5: the growth inhibition rate is greater than 85%)
CC(Oc1nc(F)c(Cl)c(N)c1Cl)C(=O)SC(N)C(=O)O (stereo not drawn) [Compound 103]	5 (Level 5: the growth inhibition rate is greater than 85%)	5 (Level 5: the growth inhibition rate is greater than 85%)	5 (Level 5: the growth inhibition rate is greater than 85%)	5 (Level 5: the growth inhibition rate is greater than 85%)	5 (Level 5: the growth inhibition rate is greater than 85%)	5 (Level 5: the growth inhibition rate is greater than 85%)
COC(=O)C(NC(=O)OC(C)(C)C)SC(=O)C(C)Oc1nc(F)c(Cl)c(N)c1Cl (stereo not drawn) [Compound 104]	5 (Level 5: the growth inhibition rate is greater than 85%)	5 (Level 5: the growth inhibition rate is greater than 85%)	5 (Level 5: the growth inhibition rate is greater than 85%)	5 (Level 5: the growth inhibition rate is greater than 85%)	5 (Level 5: the growth inhibition rate is greater than 85%)	5 (Level 5: the growth inhibition rate is greater than 85%)
CC(Oc1nc(F)c(Cl)c(N)c1Cl)C(=O)SS(C)(=O)=O (stereo not drawn) [Compound 105]	5 (Level 5: the growth inhibition rate is greater than 85%)	5 (Level 5: the growth inhibition rate is greater than 85%)	5 (Level 5: the growth inhibition rate is greater than 85%)	5 (Level 5: the growth inhibition rate is greater than 85%)	5 (Level 5: the growth inhibition rate is greater than 85%)	5 (Level 5: the growth inhibition rate is greater than 85%)
CC(Oc1nc(F)c(Cl)c(N)c1Cl)C(=O)SC1CCCO1 (stereo not drawn) [Compound 106]	5 (Level 5: the growth inhibition rate is greater than 85%)	5 (Level 5: the growth inhibition rate is greater than 85%)	5 (Level 5: the growth inhibition rate is greater than 85%)	5 (Level 5: the growth inhibition rate is greater than 85%)	5 (Level 5: the growth inhibition rate is greater than 85%)	5 (Level 5: the growth inhibition rate is greater than 85%)
CC(Oc1nc(F)c(Cl)c(N)c1Cl)C(=O)Sc1ccccc1 (stereo not drawn) [Compound 107]	5 (Level 5: the growth inhibition rate is greater than 85%)	5 (Level 5: the growth inhibition rate is greater than 85%)	5 (Level 5: the growth inhibition rate is greater than 85%)	5 (Level 5: the growth inhibition rate is greater than 85%)	5 (Level 5: the growth inhibition rate is greater than 85%)	5 (Level 5: the growth inhibition rate is greater than 85%)
Cc1ccccc1SC(=O)C(C)Oc1nc(F)c(Cl)c(N)c1Cl (stereo not drawn) [Compound 108]	5 (Level 5: the growth inhibition rate is greater than 85%)	5 (Level 5: the growth inhibition rate is greater than 85%)	5 (Level 5: the growth inhibition rate is greater than 85%)	5 (Level 5: the growth inhibition rate is greater than 85%)	5 (Level 5: the growth inhibition rate is greater than 85%)	5 (Level 5: the growth inhibition rate is greater than 85%)
CC(Oc1nc(F)c(Cl)c(N)c1Cl)C(=O)Sc1cccc(N(C)C)c1 (stereo not drawn) [Compound 109]	5 (Level 5: the growth inhibition rate is greater than 85%)	5 (Level 5: the growth inhibition rate is greater than 85%)	5 (Level 5: the growth inhibition rate is greater than 85%)	5 (Level 5: the growth inhibition rate is greater than 85%)	5 (Level 5: the growth inhibition rate is greater than 85%)	5 (Level 5: the growth inhibition rate is greater than 85%)
CC(Oc1nc(F)c(Cl)c(N)c1Cl)C(=O)Sc1cccc(Cl)c1 (stereo not drawn) [Compound 110]	5 (Level 5: the growth inhibition rate is greater than 85%)	5 (Level 5: the growth inhibition rate is greater than 85%)	5 (Level 5: the growth inhibition rate is greater than 85%)	5 (Level 5: the growth inhibition rate is greater than 85%)	5 (Level 5: the growth inhibition rate is greater than 85%)	5 (Level 5: the growth inhibition rate is greater than 85%)
COc1ccc(SC(=O)C(C)Oc2nc(F)c(Cl)c(N)c2Cl)cc1 (stereo not drawn) [Compound 111]	5 (Level 5: the growth inhibition rate is greater than 85%)	5 (Level 5: the growth inhibition rate is greater than 85%)	5 (Level 5: the growth inhibition rate is greater than 85%)	5 (Level 5: the growth inhibition rate is greater than 85%)	5 (Level 5: the growth inhibition rate is greater than 85%)	5 (Level 5: the growth inhibition rate is greater than 85%)
CC(Oc1nc(F)c(Cl)c(N)c1Cl)C(=O)Sc1ccc(C(F)(F)F)cc1 (stereo not drawn) [Compound 112]	5 (Level 5: the growth inhibition rate is greater than 85%)	5 (Level 5: the growth inhibition rate is greater than 85%)	5 (Level 5: the growth inhibition rate is greater than 85%)	5 (Level 5: the growth inhibition rate is greater than 85%)	5 (Level 5: the growth inhibition rate is greater than 85%)	5 (Level 5: the growth inhibition rate is greater than 85%)
CC(Oc1nc(F)c(Cl)c(N)c1Cl)C(=O)Sc1cccc(C(C)C)c1 (stereo not drawn) [Compound 113]	5 (Level 5: the growth inhibition rate is greater than 85%)	5 (Level 5: the growth inhibition rate is greater than 85%)	5 (Level 5: the growth inhibition rate is greater than 85%)	5 (Level 5: the growth inhibition rate is greater than 85%)	5 (Level 5: the growth inhibition rate is greater than 85%)	5 (Level 5: the growth inhibition rate is greater than 85%)
